Source: patent publication EP3046573B1, “AMYLIN ANALOGUES” (Zealand Pharma A/S, priority 2013, dated 2015)
Read-outs that look alike come from different tables or passages of the source. Numbered stars: 1 amine (or outer) side, 2 acyl side, 3 side chain; on linkers, the order of the positions; unused ones are H or OH. Bridge positions count the residues as written; N and C are the ends. Square brackets hold non-standard residues; d marks the D form. Peptide text beside a SMILES is read from it. * marks the point of attachment. C20 diacid = O=C(O)CCCCCCCCCCCCCCCCCCC(=O)*; γGlu = O=C(O)[C@H](CCC(=O)[*:2])N[*:1]; NMeI = CC[C@H](C)[C@H](NC)C(=O)O; Sar = CNCC(=O)O

Key:
[1] = Solubility assessment (turbidity absorbance at 325 nm); assay type: physicochemical; conditions: stock 2 mg/ml diluted 1:1, ambient temperature (typically 25°C), n=1; for Solubility, Acetate buffer pH 4: 100 mM acetate buffer pH 4.0; for Solubility, Acetate buffer pH 5: 100 mM acetate buffer pH 5.0; for Solubility, Histidine buffer pH 6: 100 mM histidine buffer pH 6.0; for Solubility, Histidine buffer pH 7: 100 mM histidine buffer pH 7.0; for Solubility, Phosphate buffer pH 6: 100 mM phosphate buffer pH 6.0; for Solubility, Phosphate buffer pH 7: 100 mM phosphate buffer pH 7.0; for Solubility, Phosphate buffer pH 7.5: 100 mM phosphate buffer pH7.5
Procedure, shortened: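 Turbidity read as absorbance at 325 nm (also 280 nm), single samples at ambient temperature (typically 25°C); ≤ 0.02 units counts as ≥ 1 mg/ml soluble. Samples made by 1:1 dilution of a 2 mg/ml acidic stock into 100 mM acetate, histidine or phosphate buffers, pH 4.0–7.5.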

[2] = target: T1, human calcitonin receptor (hCTR2) (Homo sapiens, UniProt P30988); test: hCTR2 assay: induction of cAMP (AlphaScreen cAMP Assay kit) in COS7 cells expressing hCTR2; assay type: cell-based
T1 construct: expressed in transfected cells
T1 sequence (P30988 25-474): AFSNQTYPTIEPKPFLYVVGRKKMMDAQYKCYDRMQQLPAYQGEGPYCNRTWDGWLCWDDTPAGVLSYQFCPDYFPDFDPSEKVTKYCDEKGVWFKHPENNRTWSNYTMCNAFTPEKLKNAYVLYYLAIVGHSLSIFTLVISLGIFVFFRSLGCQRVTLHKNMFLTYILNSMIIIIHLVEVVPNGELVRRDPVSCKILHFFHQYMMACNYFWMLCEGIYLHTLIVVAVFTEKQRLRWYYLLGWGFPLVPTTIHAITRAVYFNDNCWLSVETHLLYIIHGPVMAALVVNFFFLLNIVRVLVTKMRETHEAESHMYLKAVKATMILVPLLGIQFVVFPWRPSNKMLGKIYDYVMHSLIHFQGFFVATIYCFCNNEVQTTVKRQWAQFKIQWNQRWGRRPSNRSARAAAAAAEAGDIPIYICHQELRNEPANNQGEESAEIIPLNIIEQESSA
Procedure, shortened: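 Peptide-induced cAMP in hCTR2-expressing COS7 cells, 15 min at 37° C with phosphodiesterase inhibitor IBMX (100 µM), detected by AlphaScreen; potency from 4PL curves.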

Sprague Dawley (SD) rats = test: Acute food intake and body weight in normal Sprague Dawley rats; assay type: in vivo; conditions: vehicle-corrected, dose 30 nmol/kg sc, once; for Body weight loss (%) after 96 hours: mean ± SEM, n = 8
Procedure, shortened: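 Normal male-unspecified SD rats, n = 8 per group, given a single s.c. peptide dose of 30 nmol/kg just before dark phase, with vehicle and positive control groups. Food intake recorded at 0, 4, 7, 10, 24, 48, 72 and 96 h; body weight daily; means ± SEM.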

[3] = cAMP induction in COS7 cells expressing hCTR2, average of a minimum of 3 determinations, read-out: hCTR2 EC50

SMILES	Solubility, Acetate buffer pH 4 [1]	Solubility, Acetate buffer pH 5 [1]	Solubility, Histidine buffer pH 6 [1]	Solubility, Histidine buffer pH 7 [1]	Solubility, Phosphate buffer pH 6 [1]	Solubility, Phosphate buffer pH 7 [1]	Solubility, Phosphate buffer pH 7.5 [1]	EC50 [2, 3] [nM]	Food intake inhibition (%) after 48 hours (Sprague Dawley (SD) rats) [%]	Body weight loss (%) after 96 hours (Sprague Dawley (SD) rats) [%]	EC50 [2] [nM]
CC[C@H](C)[C@@H](C(=O)N[C@@H](CC(C)C)C(=O)N[C@@H](CO)C(=O)N[C@@H](CO)C(=O)N[C@H](C(=O)N[C@@H](CCC(=O)O)C(=O)N[C@H](C(=O)NCC(=O)N[C@@H](CO)C(=O)N[C@@H](CCC(=O)O)C(=O)N[C@H](C(=O)N1CCC[C@H]1C(N)=O)[C@@H](C)O)C(C)C)[C@@H](C)O)N(C)C(=O)[C@H](C)NC(=O)CN(C)C(=O)[C@H](Cc1ccccc1)NC(=O)[C@H](CO)NC(=O)[C@H](CO)NC(=O)[C@H](CO)NC(=O)[C@H](CO)NC(=O)[C@H](CCCNC(=N)N)NC(=O)[C@H](Cc1c[nH]cn1)NC(=O)[C@H](CC(C)C)NC(=O)[C@H](Cc1ccccc1)NC(=O)[C@H](CCC(=O)O)NC(=O)[C@H](C)NC(=O)[C@H](CC(C)C)NC(=O)[C@H](CCCNC(=N)N)NC(=O)[C@H](CCC(=O)O)NC(=O)[C@@H](NC(=O)[C@H](C)NC(=O)[C@@H]1CSSC[C@H](NC(=O)[C@H](CCCNC(=N)N)NC(=O)CC[C@H](NC(=O)CCCCCCCCCCCCCCCCCCC(=O)O)C(=O)O)C(=O)N[C@@H](CCC(=O)O)C(=O)N[C@@H]([C@@H](C)O)C(=O)N[C@@H](C)C(=O)N[C@@H]([C@@H](C)O)C(=O)N1)[C@@H](C)O [Compound 134, [19CD]-isoGlu-RC()ETATC()ATERLAEFLHRSSSSF-Gly(Me)-A-Ile(Me)-LSSTEVGSETP-NH2] ({C20 diacid-γGlu}-RCETATCATERLAEFLHRSSSSF[Sar]A[NMeI]LSSTEVGSETP-NH2; disulfide 2-7)	SS (SS indicates solubility ≥ 1mg/ml)	SS (SS indicates solubility ≥ 1mg/ml)	SS (SS indicates solubility ≥ 1mg/ml)	SS (SS indicates solubility ≥ 1mg/ml)	SS (SS indicates solubility ≥ 1mg/ml)	SS (SS indicates solubility ≥ 1mg/ml)	SS (SS indicates solubility ≥ 1mg/ml)	0.22	27	4 ± 3.1	
CC[C@H](C)[C@@H](C(=O)N[C@@H](CC(C)C)C(=O)N[C@@H](CO)C(=O)N[C@@H](CO)C(=O)N[C@H](C(=O)N[C@@H](CC(=O)O)C(=O)N[C@H](C(=O)NCC(=O)N[C@@H](CO)C(=O)N[C@@H](CC(=O)O)C(=O)N[C@H](C(=O)N1CCC[C@H]1C(N)=O)[C@@H](C)O)C(C)C)[C@@H](C)O)N(C)C(=O)[C@H](C)NC(=O)CN(C)C(=O)[C@H](Cc1ccccc1)NC(=O)[C@H](CO)NC(=O)[C@H](CO)NC(=O)[C@H](CO)NC(=O)[C@H](CO)NC(=O)[C@H](CCCNC(=N)N)NC(=O)[C@H](Cc1c[nH]cn1)NC(=O)[C@H](CC(C)C)NC(=O)[C@H](Cc1ccccc1)NC(=O)[C@H](CCC(=O)O)NC(=O)[C@H](C)NC(=O)[C@H](CC(C)C)NC(=O)[C@H](CCCNC(=N)N)NC(=O)[C@H](CCC(N)=O)NC(=O)[C@@H](NC(=O)[C@H](C)NC(=O)[C@@H]1CSSC[C@H](NC(=O)[C@H](CCCNC(=N)N)NC(=O)CC[C@H](NC(=O)CCCCCCCCCCCCCCCCCCC(=O)O)C(=O)O)C(=O)N[C@@H](CC(N)=O)C(=O)N[C@@H]([C@@H](C)O)C(=O)N[C@@H](C)C(=O)N[C@@H]([C@@H](C)O)C(=O)N1)[C@@H](C)O [Compound 73, [19CD]-isoGlu-RC()NTATC()ATQRLAEFLHRSSSSF-Gly(Me)-A-Ile(Me)-LSSTDVGSDTP-NH2] ({C20 diacid-γGlu}-RCNTATCATQRLAEFLHRSSSSF[Sar]A[NMeI]LSSTDVGSDTP-NH2; disulfide 2-7)	SS (SS indicates solubility ≥ 1mg/ml)	II (II indicates solubility ≤ 1 mg/ml)	SS (SS indicates solubility ≥ 1mg/ml)	SS (SS indicates solubility ≥ 1mg/ml)	SS (SS indicates solubility ≥ 1mg/ml)	SS (SS indicates solubility ≥ 1mg/ml)	SS (SS indicates solubility ≥ 1mg/ml)	0.072	93	11 ± 1.8	
CC[C@H](C)[C@@H](C(=O)N[C@@H](CC(C)C)C(=O)N[C@@H](CO)C(=O)N[C@@H](CO)C(=O)N[C@H](C(=O)N[C@@H](CCC(=O)O)C(=O)N[C@H](C(=O)NCC(=O)N[C@@H](CO)C(=O)N[C@@H](CCC(=O)O)C(=O)N[C@H](C(=O)N1CCC[C@H]1C(N)=O)[C@@H](C)O)C(C)C)[C@@H](C)O)N(C)C(=O)[C@H](C)NC(=O)CN(C)C(=O)[C@H](Cc1ccccc1)NC(=O)[C@H](CO)NC(=O)[C@H](CO)NC(=O)[C@H](CO)NC(=O)[C@H](CO)NC(=O)[C@H](CCCNC(=N)N)NC(=O)[C@H](Cc1c[nH]cn1)NC(=O)[C@H](CC(C)C)NC(=O)[C@H](Cc1ccccc1)NC(=O)[C@H](CCC(=O)O)NC(=O)[C@H](C)NC(=O)[C@H](CC(C)C)NC(=O)[C@H](CCCNC(=N)N)NC(=O)[C@H](CC(=O)O)NC(=O)[C@@H](NC(=O)[C@H](C)NC(=O)[C@@H]1CSSC[C@H](NC(=O)[C@H](CCCNC(=N)N)NC(=O)CC[C@H](NC(=O)CCCCCCCCCCCCCCCCCCC(=O)O)C(=O)O)C(=O)N[C@@H](CC(N)=O)C(=O)N[C@@H]([C@@H](C)O)C(=O)N[C@@H](C)C(=O)N[C@@H]([C@@H](C)O)C(=O)N1)[C@@H](C)O [Compound 120, [19CD]-isoGlu-RC()NTATC()ATDRLAEFLHRSSSSF-Gly(Me)-A-Ile(Me)-LSSTEVGSETP-NH2] ({C20 diacid-γGlu}-RCNTATCATDRLAEFLHRSSSSF[Sar]A[NMeI]LSSTEVGSETP-NH2; disulfide 2-7)	SS (SS indicates solubility ≥ 1mg/ml)	SS (SS indicates solubility ≥ 1mg/ml)	SS (SS indicates solubility ≥ 1mg/ml)	SS (SS indicates solubility ≥ 1mg/ml)	SS (SS indicates solubility ≥ 1mg/ml)	SS (SS indicates solubility ≥ 1mg/ml)	SS (SS indicates solubility ≥ 1mg/ml)	0.043		12 ± 1.8	
CC[C@H](C)[C@@H](C(=O)N[C@@H](CC(C)C)C(=O)N[C@@H](CO)C(=O)N[C@@H](CO)C(=O)N[C@H](C(=O)N[C@@H](CC(N)=O)C(=O)N[C@H](C(=O)NCC(=O)N[C@@H](CO)C(=O)N[C@@H](CC(N)=O)C(=O)N[C@H](C(=O)N1CCC[C@H]1C(N)=O)[C@@H](C)O)C(C)C)[C@@H](C)O)N(C)C(=O)[C@H](C)NC(=O)CN(C)C(=O)[C@H](Cc1ccccc1)NC(=O)[C@H](CC(N)=O)NC(=O)[C@H](CC(N)=O)NC(=O)[C@H](CO)NC(=O)[C@H](CO)NC(=O)[C@H](CCCNC(=N)N)NC(=O)[C@H](Cc1c[nH]cn1)NC(=O)[C@H](CC(C)C)NC(=O)[C@H](Cc1ccccc1)NC(=O)[C@H](CCC(=O)O)NC(=O)[C@H](C)NC(=O)[C@H](CC(C)C)NC(=O)[C@H](CCCNC(=N)N)NC(=O)[C@H](CCC(N)=O)NC(=O)[C@@H](NC(=O)[C@H](C)NC(=O)[C@@H]1CSSC[C@H](NC(=O)[C@H](CCCNC(=N)N)NC(=O)CC[C@H](NC(=O)CCCCCCCCCCCCCCCCCCC(=O)O)C(=O)O)C(=O)N[C@@H](CC(N)=O)C(=O)N[C@@H]([C@@H](C)O)C(=O)N[C@@H](C)C(=O)N[C@@H]([C@@H](C)O)C(=O)N1)[C@@H](C)O [Compound 18, [19CD]-isoGlu-RC()NTATC()ATQRLAEFLHRSSNNF-Gly(Me)-A-Ile(Me)-LSSTNVGSNTP-NH2] ({C20 diacid-γGlu}-RCNTATCATQRLAEFLHRSSNNF[Sar]A[NMeI]LSSTNVGSNTP-NH2; disulfide 2-7)	SS (SS indicates solubility ≥ 1mg/ml)	SS (SS indicates solubility ≥ 1mg/ml)	SS (SS indicates solubility ≥ 1mg/ml)	SS (SS indicates solubility ≥ 1mg/ml)	SS (SS indicates solubility ≥ 1mg/ml)	SS (SS indicates solubility ≥ 1mg/ml)	SS (SS indicates solubility ≥ 1mg/ml)		98	13 ± 0.8	0.06
